Columns and labels:
NMDAR2D [1] = biological target: T1, NMDAR2D (Homo sapiens, UniProt O15399+Q05586); assay: [3H]MK-801 binding, NMDAR2D expressing HEK cell membranes; assay type: biochemical; conditions: 50 μM glutamate; for Emax: read-out: NMDAR2D A: % maximal [3H]MK-801 binding relative to 1 mM glycine; for EC50: read-out: NMDAR2D B: log EC50 (converted)
T1 construct: expressed in transfected cells; host or cells: HEK cells (membrane extract)
Description: (§1) Assays were conducted as described by Moskal et al., “GLYX-13: a monoclonal antibody-derived peptide that acts as an N-methyl-D-aspartate receptor modulator,” Neuropharmacology, 49, 1077-87, 2005. These studies were designed to determine if the test compounds act to facilitate NMDAR activation in NMDAR2A, NMDAR2B, NMDAR2C or NMDAR2D expressing HEK cell membranes as measured by increases in [^3H]MK-801 binding.
(§2) In the assay, 300 μg of NMDAR expressing HEK cell membrane extract protein was preincubated for 15 minutes at 25° C. in the presence of saturating concentrations of glutamate (50 μM) and varying concentrations of test compound (1×10^−15M−1×10^−7M), or 1 mM glycine. Following the addition of 0.3 μCi of [^3H]MK-801 (22.5 Ci/mmol), reactions were again incubated for 15 minutes at 25° C. (nonequilibrium conditions). Bound and free [^3H]MK-801 were separated via rapid filtration using a Brandel apparatus.
(§3) In analyzing the data, the DPM (disintegrations per minute) of [^3H]MK-801 remaining on the filter were measured for each concentration of test compound or for 1 mM glycine. The DPM values for each concentration of a ligand (N=2) were averaged. The baseline value was determined from the best fit curve of the DPM values modeled using the GraphPad program and the log(agonist) vs. response(three parameters) algorithm was then subtracted from all points in the dataset. The % maximal [^3H]MK-801 binding was then calculated relative to that of 1 mM glycine: all baseline subtracted DPM values were divided by the average value for 1 mM glycine. The EC50 and % maximal activity were then obtained from the best fit curve of the % maximal [^3H]MK-801 binding data modelled using the GraphPad program and the log(agonist) vs. response(three parameters) algorithm.
(§4) The tables below summarize the results for the wild type NMDAR agonists NMDAR2A, NMDAR2B, NMDAR2C, and NMDAR2D, and whether the compound is not an agonist (−), is an agonist (+), or is a strong agonist (++), where column A is based on the % maximal [^3H]MK-801 binding relative to 1 mM glycine (−=0; <100%=+; and >100%=++); and column B is based on log EC50 values (0=−; ≥1×10^−9M (e.g., −8)=+; and <1×10^−9M (e.g., −10)=++).

NMDAR2B = biological target: T2, NMDAR2B (Homo sapiens, UniProt Q13224); assay: [3H]MK-801 binding, NMDAR2B expressing HEK cell membranes; assay type: biochemical; conditions: 50 μM glutamate; for EC50: read-out: NMDAR2B B: log EC50 (converted); for Emax: read-out: NMDAR2B A: % maximal [3H]MK-801 binding relative to 1 mM glycine
T2 construct: expressed in transfected cells; host or cells: HEK cells (membrane extract)
Description: as §1, §2, §3, §4

NMDAR2A = biological target: T3, NMDAR2A (Homo sapiens, UniProt Q12879); assay: [3H]MK-801 binding, NMDAR2A expressing HEK cell membranes; assay type: biochemical; conditions: 50 μM glutamate; for EC50: read-out: NMDAR2A B: log EC50 (converted); for Emax: read-out: NMDAR2A A: % maximal [3H]MK-801 binding relative to 1 mM glycine
T3 construct: expressed in transfected cells; host or cells: HEK cells (membrane extract)
Description: as §1, §2, §3, §4

NMDAR2C = biological target: T4, NMDAR2C (Homo sapiens, UniProt Q14957); assay: [3H]MK-801 binding, NMDAR2C expressing HEK cell membranes; assay type: biochemical; conditions: 50 μM glutamate; for EC50: read-out: NMDAR2C B: log EC50 (converted)
T4 construct: expressed in transfected cells; host or cells: HEK cells (membrane extract)
Description: as §1, §2, §3, §4

NMDAR2D [2] = biological target: T5, NMDAR2D (Homo sapiens, UniProt O15399); assay: [3H]MK-801 binding, NMDAR2D expressing HEK cell membranes; assay type: biochemical; conditions: 50 μM glutamate
T5 construct: expressed in transfected cells; host or cells: HEK cells (membrane extract)
Description: as §1, §2, §3, §4

IV pharmacokinetics = assay type: in vivo, Sprague Dawley rats; conditions: Sprague Dawley, rat, in vivo, iv, 2 mg/kg, normal saline (compounds marked * in 1% NMP and 99% normal saline); for C0: read-out: C0; for Vd: read-out: Vss
Source text: The table below summarizes the results of the IV pharmacokinetics.

[3] = Oral pharmacokinetics (plasma, brain, CSF); conditions: rat, 10 mg/kg, per os; for bioavailability: % F; for AUC(0-t): AUClast
Description: Plasma, brain, and CSF samples were analyzed at various time points over a 24 hour period.

[4] = system: rats' response (reduced floating time); assay: Porsolt forced swim test; assay type: in vivo, Sprague Dawley rats
Description: A non-clinical in vivo pharmacology study (Porsolt assay) was performed to measure antidepressant-like effects. A negative control (0.5% sodium carboxymethyl cellulose in 0.9% sterile saline vehicle) and a positive control (fluoxetine) are shown for comparison against test compound. The study allowed for the evaluation of the effects of each compound on the Porsolt forced swim test as assessed by the rats' response (reduced floating time) during a 5-minute swimming test.
Male 2-3 month old Sprague Dawley rats were used (Harlan, Indianapolis, Ind.). Rats were housed in Lucite cages with aspen wood chip bedding, maintained on a 12:12 light:dark cycle (lights on at 5 AM), and given ad libitum access to Purina lab chow (USA) and tap water throughout the study.
The Porsolt forced swim test adapted for use in rats was performed as described by Burgdorf et al., (The long-lasting antidepressant effects of rapastinel (GLYX-13) are associated with a metaplasticity process in the medial prefrontal cortex and hippocampus. Neuroscience 308:202-211, 2015). Animals were placed in a 46 cm tall×20 cm in diameter clear glass tube filled to 30 cm with tap water (23±1° C.) for 15 min on the first day (habituation) and 5 min on the subsequent test day. Positive control fluoxetine was dosed 3 times (24 h, 5 h and 1 h) prior to testing. Animals were tested 1 h post-dosing with the test compounds or vehicle. Animals received a 15 min habituation session 1 day before the 5 min test. A subset of compounds tested at 1 h post-dosing were retested at 1 wk post-dosing in the same sets of animals. Water was changed after every other animal. Animals were videotaped, and floating time as defined as the minimal amount of effort required to keep the animals head above water was scored offline by a blinded experimenter with high inter-rater reliability (Pearson's r>0.9).
Each compound tested at dose level shown. Significance vs. vehicle group for each experiment is marked. […] A compound marked “No” was not statistically significant from vehicle. Data was averaged for test compound and vehicle groups (N approximately 8 per group) and the percent reduction in floating for group treated with test compound relative to group treated with vehicle is shown.

[5] = Sprague Dawley, plasma, po, normal saline (compounds marked * in 1% NMP and 99% normal saline)
[6] = normal saline (compounds marked * in 1% NMP and 99% normal saline)
[7] = Sprague Dawley, plasma, po, Tmax, normal saline (compounds marked * in 1% NMP and 99% normal saline)
[8] = 1 h post-dose, 0.1 mg/kg; Yes = p<=0.05 from vehicle

T3 sequence (Q12879 23-1464, species assumed, other chains not shown): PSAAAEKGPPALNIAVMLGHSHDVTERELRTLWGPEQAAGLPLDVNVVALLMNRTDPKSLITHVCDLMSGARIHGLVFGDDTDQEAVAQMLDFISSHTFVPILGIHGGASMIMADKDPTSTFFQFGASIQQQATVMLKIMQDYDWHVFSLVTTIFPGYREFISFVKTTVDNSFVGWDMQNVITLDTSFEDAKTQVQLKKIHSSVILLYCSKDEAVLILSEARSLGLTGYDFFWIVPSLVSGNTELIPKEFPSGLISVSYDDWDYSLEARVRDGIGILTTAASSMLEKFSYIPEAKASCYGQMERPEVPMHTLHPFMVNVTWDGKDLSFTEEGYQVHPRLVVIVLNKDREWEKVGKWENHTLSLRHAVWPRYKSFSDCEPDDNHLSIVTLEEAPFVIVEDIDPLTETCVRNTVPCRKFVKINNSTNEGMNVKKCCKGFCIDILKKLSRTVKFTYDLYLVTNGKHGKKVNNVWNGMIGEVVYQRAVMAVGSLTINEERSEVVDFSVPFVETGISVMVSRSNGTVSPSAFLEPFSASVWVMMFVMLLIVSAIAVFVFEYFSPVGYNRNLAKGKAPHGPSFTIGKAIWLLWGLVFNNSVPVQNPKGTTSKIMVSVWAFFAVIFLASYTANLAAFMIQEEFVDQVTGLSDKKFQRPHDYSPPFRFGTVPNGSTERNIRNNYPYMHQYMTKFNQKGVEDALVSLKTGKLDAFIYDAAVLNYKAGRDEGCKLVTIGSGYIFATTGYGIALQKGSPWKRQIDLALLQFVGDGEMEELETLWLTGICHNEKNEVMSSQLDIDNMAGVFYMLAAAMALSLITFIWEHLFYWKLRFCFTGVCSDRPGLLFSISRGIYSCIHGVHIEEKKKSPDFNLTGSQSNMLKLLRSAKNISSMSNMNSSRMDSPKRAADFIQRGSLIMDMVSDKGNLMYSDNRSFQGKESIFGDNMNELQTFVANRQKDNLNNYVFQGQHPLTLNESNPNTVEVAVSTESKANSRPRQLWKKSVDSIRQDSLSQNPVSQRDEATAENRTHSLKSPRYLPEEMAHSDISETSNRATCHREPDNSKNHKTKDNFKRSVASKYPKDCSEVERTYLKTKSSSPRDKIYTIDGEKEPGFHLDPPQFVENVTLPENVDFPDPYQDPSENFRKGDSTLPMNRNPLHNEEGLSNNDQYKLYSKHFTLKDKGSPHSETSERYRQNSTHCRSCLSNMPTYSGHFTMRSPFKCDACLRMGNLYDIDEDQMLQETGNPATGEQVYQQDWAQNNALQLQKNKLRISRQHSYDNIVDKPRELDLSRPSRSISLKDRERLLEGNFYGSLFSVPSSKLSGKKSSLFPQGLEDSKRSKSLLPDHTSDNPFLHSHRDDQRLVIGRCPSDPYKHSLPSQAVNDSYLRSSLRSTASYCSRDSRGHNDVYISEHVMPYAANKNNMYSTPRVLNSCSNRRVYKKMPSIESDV
T1 sequence (O15399 28-1336, species assumed, other chains not shown): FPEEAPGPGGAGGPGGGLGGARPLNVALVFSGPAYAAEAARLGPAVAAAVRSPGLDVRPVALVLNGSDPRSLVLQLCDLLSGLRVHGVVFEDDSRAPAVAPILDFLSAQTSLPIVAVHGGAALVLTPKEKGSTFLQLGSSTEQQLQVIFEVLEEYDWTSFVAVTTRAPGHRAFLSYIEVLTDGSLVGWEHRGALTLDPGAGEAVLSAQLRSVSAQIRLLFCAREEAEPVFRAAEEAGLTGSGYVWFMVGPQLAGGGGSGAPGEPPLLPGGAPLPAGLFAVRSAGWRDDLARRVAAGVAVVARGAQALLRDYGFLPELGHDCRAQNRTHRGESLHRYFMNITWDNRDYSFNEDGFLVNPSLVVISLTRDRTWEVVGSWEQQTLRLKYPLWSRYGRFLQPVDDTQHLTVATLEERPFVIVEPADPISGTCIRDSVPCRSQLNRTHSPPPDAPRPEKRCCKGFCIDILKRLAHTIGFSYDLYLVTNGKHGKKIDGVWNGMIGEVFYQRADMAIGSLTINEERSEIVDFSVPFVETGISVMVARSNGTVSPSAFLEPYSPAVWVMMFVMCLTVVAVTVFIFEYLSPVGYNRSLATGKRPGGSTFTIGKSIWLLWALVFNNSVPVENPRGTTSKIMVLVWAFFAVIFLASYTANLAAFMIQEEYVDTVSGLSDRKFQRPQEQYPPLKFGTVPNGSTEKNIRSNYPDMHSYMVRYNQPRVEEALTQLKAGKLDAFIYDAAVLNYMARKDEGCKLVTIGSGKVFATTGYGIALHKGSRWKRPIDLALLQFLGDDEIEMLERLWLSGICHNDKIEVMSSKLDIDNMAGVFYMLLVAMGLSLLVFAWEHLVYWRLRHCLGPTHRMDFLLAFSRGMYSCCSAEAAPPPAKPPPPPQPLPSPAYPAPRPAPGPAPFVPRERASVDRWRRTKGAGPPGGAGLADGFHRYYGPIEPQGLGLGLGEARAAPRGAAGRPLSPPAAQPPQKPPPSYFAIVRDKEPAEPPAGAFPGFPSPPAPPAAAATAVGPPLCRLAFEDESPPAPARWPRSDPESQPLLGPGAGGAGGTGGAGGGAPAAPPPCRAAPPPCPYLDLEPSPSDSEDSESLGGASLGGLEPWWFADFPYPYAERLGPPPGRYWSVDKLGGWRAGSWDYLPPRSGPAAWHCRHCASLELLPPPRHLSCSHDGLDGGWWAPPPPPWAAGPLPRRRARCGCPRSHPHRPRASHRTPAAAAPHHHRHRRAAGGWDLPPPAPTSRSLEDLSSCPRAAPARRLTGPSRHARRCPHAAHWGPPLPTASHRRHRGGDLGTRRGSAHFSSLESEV
T4 sequence (Q14957 20-1233, species assumed, other chains not shown): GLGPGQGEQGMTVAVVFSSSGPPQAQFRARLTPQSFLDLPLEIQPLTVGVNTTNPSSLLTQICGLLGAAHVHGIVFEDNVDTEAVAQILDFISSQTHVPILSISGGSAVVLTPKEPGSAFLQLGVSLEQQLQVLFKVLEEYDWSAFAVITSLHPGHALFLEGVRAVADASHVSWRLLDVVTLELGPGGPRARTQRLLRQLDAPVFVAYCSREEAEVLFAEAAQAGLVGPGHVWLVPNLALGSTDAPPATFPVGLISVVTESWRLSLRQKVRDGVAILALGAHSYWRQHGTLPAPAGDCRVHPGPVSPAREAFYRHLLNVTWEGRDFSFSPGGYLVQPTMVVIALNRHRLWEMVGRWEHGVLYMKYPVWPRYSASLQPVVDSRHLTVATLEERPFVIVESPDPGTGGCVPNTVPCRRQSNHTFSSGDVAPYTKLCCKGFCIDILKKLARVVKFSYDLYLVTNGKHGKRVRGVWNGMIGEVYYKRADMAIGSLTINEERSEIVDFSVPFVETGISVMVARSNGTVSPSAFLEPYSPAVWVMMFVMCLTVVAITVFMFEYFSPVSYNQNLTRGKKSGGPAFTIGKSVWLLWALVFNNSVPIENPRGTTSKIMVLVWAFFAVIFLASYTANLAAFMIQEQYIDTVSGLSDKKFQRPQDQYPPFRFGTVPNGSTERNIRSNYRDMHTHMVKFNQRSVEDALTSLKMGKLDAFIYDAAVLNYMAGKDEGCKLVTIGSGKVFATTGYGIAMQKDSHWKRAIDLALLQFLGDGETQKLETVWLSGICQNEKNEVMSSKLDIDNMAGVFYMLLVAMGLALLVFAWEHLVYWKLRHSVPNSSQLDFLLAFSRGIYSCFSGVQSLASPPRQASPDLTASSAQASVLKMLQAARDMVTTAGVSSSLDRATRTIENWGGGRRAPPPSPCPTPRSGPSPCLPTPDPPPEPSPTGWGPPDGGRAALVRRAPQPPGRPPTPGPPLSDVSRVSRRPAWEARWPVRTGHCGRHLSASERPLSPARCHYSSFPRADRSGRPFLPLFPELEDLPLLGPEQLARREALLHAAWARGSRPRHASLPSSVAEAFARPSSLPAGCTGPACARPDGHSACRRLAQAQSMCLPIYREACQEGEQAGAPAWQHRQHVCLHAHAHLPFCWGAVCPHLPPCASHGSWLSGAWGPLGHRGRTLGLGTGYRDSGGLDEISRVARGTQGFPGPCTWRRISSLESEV
T5 sequence (O15399 28-1336, species assumed, other chains not shown): as the sequence (O15399 28-1336, species assumed, other chains not shown) above

Structure (SMILES)	Emax (NMDAR2D [1]) [%]	NMDAR2B A: % maximal [3H]MK-801 binding relative to 1 mM glycine (NMDAR2B)	EC50 (NMDAR2B) [nM]	NMDAR2A A: % maximal [3H]MK-801 binding relative to 1 mM glycine (NMDAR2A)	EC50 (NMDAR2A) [nM]	NMDAR2C A: % maximal [3H]MK-801 binding relative to 1 mM glycine (NMDAR2C)	EC50 (NMDAR2C) [nM]	EC50 (NMDAR2D [1]) [nM]	Emax (NMDAR2A) [%]	Emax (NMDAR2B) [%]	AUC(0-t) (IV pharmacokinetics) [ng·h/mL]	clearance (IV pharmacokinetics) [mL/min/kg]	half-life (IV pharmacokinetics) [min]	C0 (IV pharmacokinetics) [ng/mL]	Vd (IV pharmacokinetics) [L/kg]	Cmax [3, 5] [ng/mL]	bioavailability ([3]; Sprague Dawley, plasma, po) [%]	AUC(0-t) [3, 5] [ng·h/mL]	Tmax [3, 7] [min]	CSF Cmax [3] [ng/mL]	also measured
O=C1NCC12CN(Cc1ccccc1)CCN2Cc1ccccc1 (single isomer, unassigned) [EA-1, 5,8-Dibenzyl-2,5,8-Triazaspiro[3.5]Nonan-1-One]	0	+ (<100%=+)	< 1	+ (<100%=+)	< 1																
CC(C)(C)OC(=O)N1CCNC2(CNC2=O)C1 (single isomer, unassigned) [EB-1, Tort-Butyl 1-Oxo-2,5,8-Triazaspiro[3.5]Nonane-8-Carboxylate]	< 100	− (−=0)			< 1	+ (<100%=+)	> 1	< 1	< 100												
CC(C)(C)OC(=O)N1CCNC2(CNC2=O)C1 (single isomer, unassigned) [EB-2, Tort-Butyl 1-Oxo-2,5,8-Triazaspiro[3.5]Nonane-8-Carboxylate]		+ (<100%=+)	> 1	+ (<100%=+)	< 1	+ (<100%=+)	< 1														NMDAR2D A: % maximal [3H]MK-801 binding relative to 1 mM glycine (NMDAR2D [2]): + (<100%=+); EC50 (NMDAR2D [2]; read-out: NMDAR2D B: log EC50 (converted)): < 1 nM
C[C@@H](O)[C@H](N)C(=O)N1CCN(C(=O)OC(C)(C)C)CC12CNC2=O (single isomer, unassigned) [EC-1, Tert-Butyl 5-(L-Threonyl)-1-Oxo-2,5,8-Triazaspiro[3.5]Nonane Carboxylate]	< 100				< 1			< 1	< 100	0											
O=C1NCC12CNCCN2Cc1ccccc1 (single isomer, unassigned) [ED-1, 5-Benzyl-2,5,8-Triazaspiro[3.5]Nonan-1-One]	< 100	− (−=0)						< 1	0		1020	32.1	47.4	1180	1.88	2800					% F [3]: 138%; AUClast [3, 6]: 7053.49 ng·h/mL; Tmax [3, 6]: 40.2 min
CC(C)(C)OC(=O)N1CCN(C(=O)OC(C)(C)C)C2(CNC2=O)C1 (single isomer, unassigned) [EE-1, Di-Tert-Butyl 1-Oxo-2,5,8-Triazaspiro[3.5]Nonane-5,8-Dicarboxylate]	0		< 1			− (−=0)			0	< 100											
C[C@@H](O)[C@H](N)C(=O)N1CCNC2(CNC2=O)C1 (single isomer, unassigned) [EK-1, 8-(L-Threonyl)-2,5,8-Triazaspiro[3.5]Nonan-1-One]	< 100	− (−=0)		+ (<100%=+)	< 1			< 1			2260	15	48	6460	0.4	1620	51	5740	100	7	Brain Cmax [3]: 0 ng/mL
C[C@@H](O)[C@H](N)C(=O)N1CCN(Cc2ccccc2)C2(CNC2=O)C1 (single isomer, unassigned) [EL-2, 8-(L-Threonyl)-5-Benzyl-2,5,8-Triazaspiro[3.5]Nonan-1-One]	0		< 1			+ (<100%=+)	< 1														
CN1CCN(C(=O)OC(C)(C)C)CC12CN(CC(N)=O)C2=O (centres unmarked) [ER-117]	< 100		< 1			− (−=0)		< 1	0	< 100	593	57.2	31.2	1670	1.44	1540	69	2050	30	232	Brain Cmax [3]: 121 ng/mL; % reduction in float time ([4]; 1 h post-dose, 0.1 mg/kg, relative to vehicle group): 55.0%; Significance vs. vehicle [4, 8]: Yes
C[C@@H](O)[C@H](N)C(=O)N1CCNC2(CCNC2=O)C1 (some centres unmarked) [ES-336]		+ (<100%=+)	< 1	+ (<100%=+)	< 1						4770	6.84	820	13700	0.73	2690	44	9820	60	143	Brain Cmax [3]: 32 ng/mL; % reduction in float time ([4]; 1 wk post-dose, 0.1 mg/kg, relative to vehicle group; 0.1 mg/kg): 86.5%; Significance vs. vehicle ([4]; 1 wk post-dose, 0.1 mg/kg; Yes = p<=0.05 from vehicle): Yes; % reduction in float time ([4]; 1 h post-dose, 0.1 mg/kg, relative to vehicle group; 0.1 mg/kg): 81.6%; Significance vs. vehicle [4, 8]: Yes

Source: patent US20230131402A1, “SPIRO-LACTAM NMDA RECEPTOR MODULATORS AND USES THEREOF” (Aptinyx Inc., priority 2016, published 2023)
